Experiments:
[1] = Drug distribution in Sprague-Dawley rat liver at 10 mg/kg,po and measured upto 24 hrs by LC/MS/MS analysis; format: ADME, organism-based; settings: in vivo
[2] = Unbound AUC (0 to infinity) in Sprague-Dawley rat at 3 mg/kg,po and measured after 72 hrs by LC/MS/MS analysis; format: ADME, organism-based; settings: in vivo
[3] = Clearance in Cynomolgus monkey at 1 mg/kg,iv and measured after 72 hrs by LC/MS/MS analysis; format: ADME, organism-based, Macaca fascicularis; settings: in vivo
[4] = Cmax in Sprague-Dawley rat at 3 mg/kg,po and measured after 72 hrs by LC/MS/MS analysis; format: ADME, organism-based; parameters: time 72 hrs, dose 3 mg/kg, route po; settings: in vivo
[5] = target: Cytochrome P450 3A4 (Homo sapiens, UniProt P08684); experiment: Inhibition of CYP3A4 in human liver microsomes incubated for 10 mins in presence of NADPH by LC/MS/MS analysis; format: ADME, Microsome
[6] = AUC (0 to infinity) in Sinclair Lab dog at 1 mg/kg,iv and measured after 72 hrs by LC/MS/MS analysis; format: ADME, organism-based, Canis lupus familiaris; parameters: time 72 hrs, dose 1 mg/kg, route iv; settings: in vivo
[7] = Volume of distribution at steady state in Cynomolgus monkey at 1 mg/kg,iv and measured after 72 hrs by LC/MS/MS analysis; format: ADME, organism-based, Macaca fascicularis; settings: in vivo, read-out: Vdss
[8] = tested on: Hepatitis C virus; experiment: Antiviral activity against Hepatitis C virus subtype 1b infected in Huh-7 cells transfected with HCV subgenomic replicon for NS5B polymerase assessed as inhibition of viral replication measured upto 96 hrs in presence of 40% of human serum by luciferase reporter gene assay; format: functional, organism-based, Hepacivirus hominis; settings: Huh-7, 96 h
[9] = Drug distribution in Sprague-Dawley rat plasma at 10 mg/kg,po and measured upto 24 hrs by LC/MS/MS analysis; format: ADME, organism-based; settings: in vivo
[10] = Clearance in Sinclair Lab dog at 1 mg/kg,iv and measured after 72 hrs by LC/MS/MS analysis; format: ADME, organism-based, Canis lupus familiaris; settings: in vivo
[11] = Clearance in Sprague-Dawley rat at 1 mg/kg,iv and measured after 72 hrs by LC/MS/MS analysis; format: ADME, organism-based; settings: in vivo
[12] = Unbound AUC (0 to infinity) in Sinclair Lab dog at 1 mg/kg,iv and measured after 72 hrs by LC/MS/MS analysis; format: ADME, organism-based, Canis lupus familiaris; settings: in vivo
[13] = Half life in Sinclair Lab dog at 1 mg/kg,iv and measured after 72 hrs by LC/MS/MS analysis; format: ADME, organism-based, Canis lupus familiaris; settings: in vivo
[14] = target: T1, PXR (Homo sapiens, UniProt O75469); experiment: Activation of human PXR expressed in human DPX2 co-expressing luciferase reporter gene assessed as maximum efficacy incubated for 24 hrs by luciferase assay relative to control; format: cell-based; settings: DPX2 cells expressing human PXR and luciferase reporter gene
T1 sequence (O75469 whole entry): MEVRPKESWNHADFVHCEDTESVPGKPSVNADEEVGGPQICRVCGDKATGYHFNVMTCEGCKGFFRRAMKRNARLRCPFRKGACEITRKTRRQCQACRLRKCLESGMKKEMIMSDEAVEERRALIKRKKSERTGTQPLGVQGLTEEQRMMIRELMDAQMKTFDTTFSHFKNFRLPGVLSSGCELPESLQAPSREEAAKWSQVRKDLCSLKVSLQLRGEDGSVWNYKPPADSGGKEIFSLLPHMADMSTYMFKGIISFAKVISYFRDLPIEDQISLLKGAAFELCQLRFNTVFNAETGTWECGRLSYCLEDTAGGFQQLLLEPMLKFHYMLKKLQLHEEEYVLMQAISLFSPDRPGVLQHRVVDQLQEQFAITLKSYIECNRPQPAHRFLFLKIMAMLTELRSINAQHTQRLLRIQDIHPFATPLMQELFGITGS

[15] = Volume of distribution at steady state in Sinclair Lab dog at 1 mg/kg,iv and measured after 72 hrs by LC/MS/MS analysis; format: ADME, organism-based, Canis lupus familiaris; settings: in vivo, read-out: Vdss
[16] = Oral bioavailability in Sprague-Dawley rat at 3 mg/kg and measured after 72 hrs by LC/MS/MS analysis; format: ADME, organism-based; settings: in vivo
[17] = Cytotoxicity against human Huh-7 cells transfected with HCV subgenomic replicon for NS5B polymerase assessed as reduction in cell viability; format: toxicity, cell-based
[18] = Half life in Sprague-Dawley rat at 3 mg/kg,po and measured after 72 hrs by LC/MS/MS analysis; format: ADME, organism-based; settings: in vivo
[19] = tested on: Hepatitis C virus; experiment: Antiviral activity against Hepatitis C virus subtype 1b infected in Huh-7 cells transfected with HCV subgenomic replicon for NS5B polymerase assessed as inhibition of viral replication measured upto 96 hrs by luciferase reporter gene assay; format: functional, organism-based, Hepacivirus hominis
[20] = AUC (0 to infinity) in Sprague-Dawley rat at 1 mg/kg,iv and measured after 72 hrs by LC/MS/MS analysis; format: ADME, organism-based; parameters: time 72 hrs, dose 1 mg/kg, route iv; settings: Sprague-Dawley, in vivo
[21] = Volume of distribution at steady state in Sprague-Dawley rat at 1 mg/kg,iv and measured after 72 hrs by LC/MS/MS analysis; format: ADME, organism-based; settings: in vivo, read-out: Vdss
[22] = Half life in Cynomolgus monkey at 1 mg/kg,iv and measured after 72 hrs by LC/MS/MS analysis; format: ADME, organism-based, Macaca fascicularis; settings: in vivo
[23] = Drug uptake in human hepatocytes at 4 degree C for 15 mins by LC/MS/MS analysis; format: ADME, cell-based, Hepatocyte; settings: 0.25 h
[24] = Half life in Sprague-Dawley rat at 1 mg/kg,iv and measured after 72 hrs by LC/MS/MS analysis; format: ADME, organism-based; settings: in vivo
[25] = Microsomal stability in rat liver microsomes assessed as parent compound remaining at 1 uM and measured after 30 mins in presence of NADPH by LC/MS/MS analysis; format: ADME, Microsome; settings: 0.5 h
[26] = AUC (0 to infinity) in Sprague-Dawley rat at 3 mg/kg,po and measured after 72 hrs by LC/MS/MS analysis; format: ADME, organism-based; parameters: time 72 hrs, dose 3 mg/kg, route po; settings: in vivo
[27] = Drug excretion in bile-duct cannulated Sprague-Dawley rat assessed as bile elimination at 15 mg/kg,po and measured after 72 hrs by LC/MS/MS analysis; format: ADME, organism-based; settings: in vivo
[28] = Unbound AUC (0 to infinity) in Cynomolgus monkey at 1 mg/kg,iv and measured after 72 hrs by LC/MS/MS analysis; format: ADME, organism-based, Macaca fascicularis; settings: in vivo
[29] = target: Cytochrome P450 2D6 (Homo sapiens, UniProt P10635); experiment: Inhibition of CYP2D6 in human liver microsomes incubated for 10 mins in presence of NADPH by LC/MS/MS analysis; format: ADME, Microsome
[30] = target: Cytochrome P450 2C9 (Homo sapiens, UniProt P11712); experiment: Inhibition of CYP2C9 in human liver microsomes incubated for 10 mins in presence of NADPH by LC/MS/MS analysis; format: ADME, Microsome
[31] = Drug uptake in human hepatocytes at 37 degree C for 15 mins by LC/MS/MS analysis; format: ADME, cell-based, Hepatocyte; settings: 0.25 h
[32] = AUC (0 to infinity) in Cynomolgus monkey at 1 mg/kg,iv and measured after 72 hrs by LC/MS/MS analysis; format: ADME, organism-based, Macaca fascicularis; parameters: dose 1 mg/kg, time 72 hrs, route iv; settings: in vivo
[33] = Unbound clearance in Cynomolgus monkey at 1 mg/kg,iv and measured after 72 hrs by LC/MS/MS analysis; format: ADME, organism-based, Macaca fascicularis; settings: in vivo
[34] = Protein binding in rat plasma at 1 uM incubated for 6 hrs by LC-MS/MS based rapid equilibrium dialysis method; format: ADME, cell-free; settings: read-out: PPB (converted)
[35] = Microsomal stability in human liver microsomes assessed as parent compound remaining at 1 uM and measured after 30 mins in presence of NADPH by LC/MS/MS analysis; format: ADME, Microsome; settings: 0.5 h
[36] = Unbound clearance in Sinclair Lab dog at 1 mg/kg,iv and measured after 72 hrs by LC/MS/MS analysis; format: ADME, organism-based, Canis lupus familiaris; settings: in vivo
[37] = Unbound AUC (0 to infinity) in Sprague-Dawley rat at 1 mg/kg,iv and measured after 72 hrs by LC/MS/MS analysis; format: ADME, organism-based; settings: in vivo
[38] = Unbound clearance in Sprague-Dawley rat at 1 mg/kg,iv and measured after 72 hrs by LC/MS/MS analysis; format: ADME, organism-based; settings: in vivo
[39] = target: T2, Nuclear receptor subfamily 1 group I member 2 (Homo sapiens, UniProt O75469); experiment: Activation of human PXR expressed in human DPX2 co-expressing luciferase reporter gene incubated for 24 hrs by luciferase assay; format: cell-based
T2 sequence (O75469 whole entry): T1 sequence (O75469 whole entry)

Sequence of Cytochrome P450 2D6 (P10635 whole entry): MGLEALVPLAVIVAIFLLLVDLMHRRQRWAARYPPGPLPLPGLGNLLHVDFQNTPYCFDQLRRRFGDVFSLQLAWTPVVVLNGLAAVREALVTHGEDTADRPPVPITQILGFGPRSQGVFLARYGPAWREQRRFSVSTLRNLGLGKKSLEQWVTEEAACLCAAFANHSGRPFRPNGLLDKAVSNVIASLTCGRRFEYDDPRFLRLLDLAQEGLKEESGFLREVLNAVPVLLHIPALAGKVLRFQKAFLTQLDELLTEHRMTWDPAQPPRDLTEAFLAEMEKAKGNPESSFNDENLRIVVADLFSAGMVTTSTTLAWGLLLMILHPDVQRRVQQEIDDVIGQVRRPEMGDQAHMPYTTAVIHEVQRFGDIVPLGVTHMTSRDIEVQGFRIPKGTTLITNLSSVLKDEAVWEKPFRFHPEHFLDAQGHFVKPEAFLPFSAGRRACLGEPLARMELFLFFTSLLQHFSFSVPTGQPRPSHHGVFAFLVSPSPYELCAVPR
Sequence of Cytochrome P450 3A4 (P08684 whole entry): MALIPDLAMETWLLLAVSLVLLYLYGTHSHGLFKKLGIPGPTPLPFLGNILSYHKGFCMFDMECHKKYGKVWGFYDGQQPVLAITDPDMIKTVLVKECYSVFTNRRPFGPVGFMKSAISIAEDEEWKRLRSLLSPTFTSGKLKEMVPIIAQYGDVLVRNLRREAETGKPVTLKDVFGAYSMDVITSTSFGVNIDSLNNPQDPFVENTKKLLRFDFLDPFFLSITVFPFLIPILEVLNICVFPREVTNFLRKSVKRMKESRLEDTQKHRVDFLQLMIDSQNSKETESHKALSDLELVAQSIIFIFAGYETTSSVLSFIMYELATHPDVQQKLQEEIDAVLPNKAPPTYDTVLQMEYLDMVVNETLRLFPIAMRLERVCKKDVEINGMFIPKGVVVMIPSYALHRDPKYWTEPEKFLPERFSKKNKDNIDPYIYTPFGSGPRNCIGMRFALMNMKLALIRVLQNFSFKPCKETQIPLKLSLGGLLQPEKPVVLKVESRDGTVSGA
Sequence of Cytochrome P450 2C9 (P11712 whole entry): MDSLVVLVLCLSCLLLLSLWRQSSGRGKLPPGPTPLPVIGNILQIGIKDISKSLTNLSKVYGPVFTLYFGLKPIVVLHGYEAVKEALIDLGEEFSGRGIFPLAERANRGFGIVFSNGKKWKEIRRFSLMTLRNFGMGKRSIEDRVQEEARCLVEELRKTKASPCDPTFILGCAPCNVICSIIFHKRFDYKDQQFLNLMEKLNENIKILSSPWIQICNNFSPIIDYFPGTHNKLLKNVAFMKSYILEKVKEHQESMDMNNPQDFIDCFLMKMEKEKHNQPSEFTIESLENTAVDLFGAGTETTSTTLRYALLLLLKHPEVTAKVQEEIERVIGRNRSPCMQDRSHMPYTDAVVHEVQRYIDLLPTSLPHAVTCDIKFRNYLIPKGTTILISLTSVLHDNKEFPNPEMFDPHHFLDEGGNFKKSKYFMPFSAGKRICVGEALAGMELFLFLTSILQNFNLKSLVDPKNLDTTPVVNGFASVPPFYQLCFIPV

- Drug uptake [1]: Active
- fAUC [2]: 30.6 ng·h/mL
- clearance [3]: 33.5 mL/min/kg
- Cmax [4]: 1040 ng/mL
- IC50 [5]: > 30000 nM
- AUC(0-inf) [6]: 1450 ng·h/mL
- Vd [7]: 5.27 L/kg
- IC50 [8]: 23 nM
- Drug uptake [9]: Active
- clearance [10]: 15 mL/min/kg
- clearance [11]: 16.1 mL/min/kg
- fAUC [12]: 10.1 ng·h/mL
- half-life [13]: 1.39 h
- Emax at 24 h [14]: 10%
- Vd [15]: 1.59 L/kg
- bioavailability [16]: 97%
- half-life [18]: 2.91 h
- IC50 ([19]; Huh-7, 96 h): 4 nM
- IC90 ([19]; Huh-7, time <= 96 hrs): 12 nM
- AUC(0-inf) [20]: 1480 ng·h/mL
- Vd [21]: 1.95 L/kg
- half-life [22]: 5.44 h
- Drug uptake [23]: Active
- half-life [24]: 2.12 h
- Stability [25]: Stable
- AUC(0-inf) [26]: 3820 ng·h/mL
- Drug excretion [27]: Active
- fAUC [28]: 4.43 ng·h/mL
- IC50 [29]: > 30000 nM
- IC50 [30]: > 30000 nM
- Drug uptake [31]: Active
- AUC(0-inf) [32]: 443 ng·h/mL
- CL free [33]: 3350 mL/min/kg
- fraction unbound at 6 h, 1 µM [34]: 0.008
- Stability [35]: Stable
- CL free [36]: 2140 mL/min/kg
- fAUC [37]: 11.8 ng·h/mL
- CL free [38]: 2010 mL/min/kg
- EC50 [39]: > 30000 nM
Compound: CN1CCCC[C@H](N(c2cc(C#CC(C)(C)C)sc2C(=O)O)C(=O)[C@H]2CC[C@H](C)CC2)C1=O
- CC50 [17]: > 20000 nM

Reference: ChEMBL document CHEMBL5260802, “Discovery of Novel Allosteric HCV NS5B Inhibitors. 2. Lactam-Containing Thiophene Carboxylates” (ACS Med Chem Lett, 2017)
